Laboratory results taken from patent publication US7700644B2, “Isoflavonoid dimers” (Novogen Research Pty Ltd, priority 2005, dated 2010).

Legend:
TXB2 = TXB2 in murine macrophages (RAW 264.7) stimulated with LPS; assay type: cell-based, mouse; details: RAW 264.7, LPS 50 ng/ml, 16 hrs, dose responsive
Method: The mouse macrophage cell line RAW 264.7 was cultured in DMEM supplemented with FCS, 2 mM glutamine and 50 U/ml penicillin/streptomycin. Subconfluent cells were detached from the flask by gentle scraping and 24-well plates seeded at 5×10^5 cells per well and allowed to adhere for 1 hr. Cells were then treated either test compounds (in 0.025% DMSO) or vehicle alone, and incubated for 1 hr. LPS 50 ng/ml (LPS —Sigma-Aldrich) was then added. After incubation for 16 hrs, culture media was collected and stored at −80° C. for ecosanoid and cytokine measurements using enzyme immunometric assays (PGE2 and TXB2—Cayman Chemical and TNFα—Becton Dickinson).

[1] = system: breast cancer cell line MDA-MB-468; experiment: In vitro cytotoxicity, MTT proliferation assay, MDA-MB-468; assay type: cell-based, human; details: Homo sapiens; Breast MDA-MB-468
Method: (§1) The human pancreatic cancer cell line, HPAC (CRL-2119) was routinely cultured in 1:1 mixture DMEM (Sigma) plus Ham's F12 (Sigma) medium containing HEPES (15 mM), insulin (0.002 mg/ml), transferrin (0.005 mg/ml), hydrocortisone, (40 ng/ml), epidermal growth factor (10 ng/ml). The ovarian cancer cell line CP70 was obtained as a gift from Dr. Gil Mor (Yale University) and cultured in a 1:1 mixture DMEM plus Ham's F12 medium, and SKOV-3 was purchased from ATCC and cultured in McCoy's 5a medium. The breast cancer cell line MDA-MB-468 cultured in Leibovitz's L-15 medium.
(§2) All cultures were supplemented with 10% FCS(CSL, Australia), penicillin (100 U/ml), streptomycin ([…]), L-glutamine (2 mM) and sodium bicarbonate (1.2 g/L), and cultured at 37° C. in a humidified atmosphere of 5% CO2. All remaining cell lines were purchased from ATCC (Maryland, USA) except where noted.
(§3) IC50 values were determined for each cell line. Cells were seeded in 96-well plates at an appropriate cell density as determined from growth kinetics analysis. NFFs were cultured for 5 days and RK-13s for 24 hrs in the absence and presence of the test compounds. Cell proliferation was assessed after the addition of 20 μl of 3-4,5 dimethylthiazol-2,5-diphenyl tetrazolium bromide (MTT, 2.5 mg/ml in PBS, Sigma) for 3-4 hrs at 37° C. according to manufacturer's instructions. IC50 values were calculated from semi-log plots of % of control proliferation on the y-axis against log dose on the x-axis.

MCF-7 (Breast) = experiment: In vitro cytotoxicity, MTT proliferation assay, MCF-7; assay type: cell-based, human; details: Homo sapiens, MCF7; Breast MCF-7
Method: as §1, §2, §3

[2] = system: ovarian cancer cell line CP70; experiment: In vitro cytotoxicity, MTT proliferation assay, CP70; assay type: cell-based, human; details: Homo sapiens
Method: as §1, §2, §3

DU145 (Prostate) = experiment: In vitro cytotoxicity, MTT proliferation assay, DU145; assay type: cell-based, human; details: Homo sapiens, DU-145
Method: as §1, §2, §3

HTB-138 (Glioma) = experiment: In vitro cytotoxicity, MTT proliferation assay, HTB-138; assay type: cell-based, human; details: Homo sapiens; Glioma HTB-138
Method: as §1, §2, §3

CCRF-CEM (Leukemic) = experiment: In vitro cytotoxicity, MTT proliferation assay, CCRF-CEM; assay type: cell-based; details: Homo sapiens
Method: as §1, §2
IC50 values were determined for each cell line. Cells were seeded in 96-well plates at an appropriate cell density as determined from growth kinetics analysis. […] Cell proliferation was assessed after the addition of 20 μl of 3-4,5 dimethylthiazol-2,5-diphenyl tetrazolium bromide (MTT, 2.5 mg/ml in PBS, Sigma) for 3-4 hrs at 37° C. according to manufacturer's instructions. IC50 values were calculated from semi-log plots of % of control proliferation on the y-axis against log dose on the x-axis.

[3] = system: UV irradiation-induced skin oedema; experiment: Murine model of UV irradiation-induced skin oedema; assay type: in vivo, female Skh:hr-1 albino mice; details: for Change in skin thickness (mean ± SD, ×0.01 mm): dorsal skin fold, topical 0.2 ml of 20 μM at 30 min, 2 h, 4 h
Source text: Groups of 4-5 female Skh:hr-1 albino mice were irradiated with 1×3 MEdD (minimal edematous dose) of solar simulated UV radiation (SSUV). Solar-simulated ultraviolet radiation (SSUV) was provided by a planar bank of 6 UVA tube (Hitachi 40W F40T 10/BL, black light) and one UVB tube (Philips TL 40W/12RS) with radiation filtered through a sheet of 0.125 mm cellulose acetate (Eastman Chemical Products, Kingport, Tenn., USA) to give 2.96×10-4W/cm2 UVA and 1.59×10-5W/cm2 UVB. The distance of the UV lamp from the irradiance table surface was approximately 20 cm and temperature was controlled with an electric fan. During irradiation, the cages were rotated below the lights to reduce the variation in radiation intensity in different positions.
Either test compound (0.2 ml of a 20 μM solution) or vehicle (propylene glycol/ethanol/water 1:2:1) was applied to the irradiated dorsal skin at 30 min, 2 h and 4 h post-irradiation. Dorsal skin fold measurements were made with a spring micrometer prior to and at 24 hr and 48 h post-UV exposure. The difference in skin thickness pre- and post-exposure to UVR was calculated for each mouse, and the differences examined between test compound and vehicle control were analysed using an unpaired two-tailed t test.

[4] = system: HCT-15 (Colorectal) cells; experiment: Chemosensitisation, combination with antineoplastic agent, HCT-15; assay type: cell-based, human
Method: (§4) The utility of the dimeric compounds of the invention to act as a chemosensitiser when used in combination with an array of standard chemotherapeutic agents was assessed. Dimeric Cpd. 2 was applied to various colorectal and pancreatic cancer cell lines to investigate its synergy with standard chemotherapeutic agents including cisplatin, gemcitabine, paclitaxel, doxorubicin, camptothecin and topotecan.
(§5) The experiment as outlined in SOP-BD011 (Versions A and B) was used to screen three antineoplastic agents against a given cell line in any ‘one’ experiment (see for example Kanzawa et al., (1997)). The inherent design of the experiment allowed for three sequences of Cpd. 2 and an antineoplastic agent. • 1) Direct Sequence—Cells are treated with both Cpd. 2 and a single antineoplastic agent (combined) for 5 days. • 2) Cpd. 2 First (Forward) Sequence—Cells are treated for 24 hours with Cpd. 2 before replacing with a 24 hour antineoplastic agent treatment; drugs are then washed out and processed on Day 5. • 3) Reverse Sequence—The reverse order to experiment No. 2 above. i.e. a cytotoxin first sequence Results and Conclusions
(§6) All data was evaluated using the formulae of theoretic additivity incorporated into a three dimensional model, as described by Kanzawa et al. (1997). This allows for simple data interpretation as values in excess of 10% are defined as ‘synergistic’ (depicted in grey) whilst those below −10% are defined as ‘antagonistic’ (depicted in black).

HT-29 (Colorectal) cells = experiment: Chemosensitisation, combination with antineoplastic agent, HT-29; assay type: cell-based, human; details: for synergy with Paclitaxel: Cpd. 2 1 μM and 2 μM
Method: as §4, §5, §6

`COc1ccc(C23COc4c(ccc(O)c4C)C2C2c4ccc(O)c(C)c4OCC2c2cc(OC)c(OC)cc23)cc1OC` (centres unmarked) [Cpd. 2, 4,9-Dihydroxy-14,15-dimethoxy-12a-(3′,4′-dimethoxyphenyl)-3,10-dimethyl-2,11-dioxa-(1H,12H)-6b,6c,12a,16b-tetrahydronaphtho[1,2-g]chrysene] was tested, and the “effect on TXB2” value (TXB2) was “inhibited”, the IC50 [1] was 8.59 ± 0.35 µM and the IC50 (MCF-7 (Breast)) was 10.3 µM. The IC50 [2] was 8.23 ± 3.73 µM, the IC50 (DU145 (Prostate)) was 8.84 ± 0.47 µM and the IC50 (HTB-138 (Glioma)) was 16.4 µM. The IC50 (CCRF-CEM (Leukemic)) was 10.3 ± 1.33 µM, the “inhibition of skin oedema” value ([3]; 24 hrs post-irradiation) was “significantly inhibited” and the “inhibition of skin oedema” value ([3]; 48 hrs post-irradiation) was “significantly inhibited”. The “Change in skin thickness (mean ± SD, ×0.01 mm)” value ([3]; 24 hrs post-irradiation, vehicle 78 ± 23) was 36 ± 22 ×0.01 mm, the “Change in skin thickness (mean ± SD, ×0.01 mm)” value ([3]; 48 hrs post-irradiation, vehicle 147 ± 37) was 105 ± 16 ×0.01 mm and the “synergy with Doxorubicin” value ([4]; combination (A)) was “strong synergistic cytotoxicity”. For the same compound, the “synergy with Paclitaxel” value ([4]; combination treated group (A)) was “no synergy”, the “synergy with Paclitaxel” value ([4]; forward (B) and reverse (C) 24 hour sequences, Cpd. 2 1 μM and 2 μM) was “strong synergy” and the “synergy with Doxorubicin” value ([4]; forward (B) or reverse (C) sequences) was “No synergy”. The “synergy with Doxorubicin” value (HT-29 (Colorectal) cells; Doxorubicin first (C)) was “no synergy”, the “synergy with Doxorubicin” value (HT-29 (Colorectal) cells; combination (A) and forward (B) sequences) was “strong synergistic cytotoxicity” and the “synergy with Paclitaxel” value (HT-29 (Colorectal) cells; combination (A)) was “strong synergy”. For the same compound, the “synergy with Gemcitabine” value (HT-29 (Colorectal) cells; forward (A) and reverse (B) sequences, Cpd. 2 5 μM and 10 μM) was “synergistic cytotoxicity” and the “synergy with Paclitaxel” value (HT-29 (Colorectal) cells; forward (B) and reverse (C) 24 hour sequences) was “Less significant regions of synergy”.
